In PubChem BioAssay AID330 (DTP/NCI, 2004):
Values joined by “and” are separate entries in the source; they are usually repeats but may differ in a detail not shown here. Equal entries are not always repeated. Inconclusive results and toxic doses are left out. The calls were made as follows: active = survival T/C of 150% or more; inactive = T/C below 125% in these data.

System: P388 leukemia ip, CD2F1 mice, survival T/C
Assay: NCI In Vivo Anticancer Drug Screen. Data for tumor model P388 Leukemia (intraperitoneal) in CD2F1 (CDF1) mice
Conditions: endpoint: median survival time, higher = longer survival
Method in brief: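 Mice carrying the transplanted tumor received test compound or vehicle. Survival was recorded in each group, and the value is the treated-group measurement divided by that of the vehicle-treated control group.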

[1] = dose: 60.0 mg/kg/injection, schedule: Q01DX005 (ip), vehicle: Klucel (hydroxypropylcellulose) (HPC)
[2] = dose: 120.0 mg/kg/injection, schedule: Q01DX005 (ip), vehicle: Klucel (hydroxypropylcellulose) (HPC)
[3] = dose: 240.0 mg/kg/injection, schedule: Q01DX005 (ip), vehicle: Klucel (hydroxypropylcellulose) (HPC)
[4] = dose: 50.0 mg/kg/injection, schedule: Q01DX005 (ip), vehicle: Klucel (hydroxypropylcellulose) (HPC)
[5] = dose: 100.0 mg/kg/injection, schedule: Q01DX005 (ip), vehicle: Klucel (hydroxypropylcellulose) (HPC)
[6] = dose: 200.0 mg/kg/injection, schedule: Q01DX005 (ip), vehicle: Klucel (hydroxypropylcellulose) (HPC)
[7] = dose: 60.0 mg/kg/injection, schedule: Q01DX005 (ip), vehicle: saline with Tween-80
[8] = dose: 120.0 mg/kg/injection, schedule: Q01DX005 (ip), vehicle: saline with Tween-80
[9] = dose: 240.0 mg/kg/injection, schedule: Q01DX005 (ip), vehicle: saline with Tween-80
[10] = dose: 100.0 mg/kg/injection, schedule: Q04DX003 (ip), vehicle: Klucel (hydroxypropylcellulose) (HPC)
[11] = dose: 200.0 mg/kg/injection, schedule: Q04DX003 (ip), vehicle: Klucel (hydroxypropylcellulose) (HPC)
[12] = dose: 400.0 mg/kg/injection, schedule: Q04DX003 (ip), vehicle: Klucel (hydroxypropylcellulose) (HPC)
[13] = dose: 50.0 mg/kg/injection, schedule: Q01DX009 (ip), vehicle: Klucel (hydroxypropylcellulose) (HPC)
[14] = dose: 50.0 mg/kg/injection, schedule: Q01DX009 (ip), vehicle: saline with Tween-80
[15] = dose: 100.0 mg/kg/injection, schedule: Q01DX009 (ip), vehicle: saline with Tween-80
[16] = dose: 200.0 mg/kg/injection, schedule: Q01DX009 (ip), vehicle: saline with Tween-80
[17] = dose: 100.0 mg/kg/injection, schedule: Q01DX009 (ip), vehicle: Klucel (hydroxypropylcellulose) (HPC)

Measured: T/C

COc1ccc(C)cc1N=NC1C(=O)N(C(=O)CC(=O)Nc2cccc(C)c2)N=C1C (stereo not given)
inactive: [1] 95 % of control | [2] 89 % of control | [3] 90 % of control

O=C(O)c1ccc2ncc(-c3ccccc3)nc2c1
inactive: [4] 100 % of control | [5] 100 % of control | [6] 95 % of control

O=C(NC(=O)c1c(F)cccc1F)Nc1ccc(Cl)cn1
inactive: dose: 50.0 mg/kg/injection, schedule: Q04DX002 (ip), vehicle: saline with Tween-80 95 % of control | dose: 100.0 mg/kg/injection, schedule: Q04DX002 (ip), vehicle: saline with Tween-80 100 % of control | dose: 200.0 mg/kg/injection, schedule: Q04DX002 (ip), vehicle: saline with Tween-80 98 % of control

O=C1CSC(c2ccc(Cl)cc2)N1N1C(=O)CSC1c1ccc(Cl)cc1 (stereo not given)
inactive: [1] 99 % of control | [2] 91 % of control | [3] 90 % of control

CC1CC(=O)c2c(nn(C)c2COCc2ccccc2)C1 (stereo not given)
inactive: [7] 102 % of control | [8] 91 % of control | [9] 96 % of control

CC(=O)/C=C(\C)Nc1ccccc1
inactive: dose: 12.5 mg/kg/injection, schedule: Q01DX009 (ip), vehicle: saline 106 % of control | dose: 25.0 mg/kg/injection, schedule: Q01DX009 (ip), vehicle: saline 102 % of control | dose: 50.0 mg/kg/injection, schedule: Q01DX009 (ip), vehicle: saline 91 % of control and 97 % of control | dose: 200.0 mg/kg/injection, schedule: Q01DX009 (ip), vehicle: saline 97 % of control

Cc1c(N=O)c(-c2ccccc2)n(O)[n+]1[O-]
inactive: [7] 102 % of control | [8] 101 % of control | [9] 102 % of control

CCn1c2ccccc2c2ccc(N=Cc3ccccc3[N+](=O)[O-])cc21
inactive: [10] 98 % of control | [11] 97 % of control | [12] 96 % of control

CCN(CC)CCNc1ccc(N=Nc2cnc3ccccc3c2)c2ccccc12
inactive: dose: 12.5 mg/kg/injection, schedule: Q01DX009 (ip), vehicle: Klucel (hydroxypropylcellulose) (HPC) 110 % of control | dose: 12.5 mg/kg/injection, schedule: Q04DX003 (ip), vehicle: Klucel (hydroxypropylcellulose) (HPC) 109 % of control | dose: 25.0 mg/kg/injection, schedule: Q01DX009 (ip), vehicle: Klucel (hydroxypropylcellulose) (HPC) 115 % of control | dose: 25.0 mg/kg/injection, schedule: Q04DX003 (ip), vehicle: Klucel (hydroxypropylcellulose) (HPC) 100 % of control | [13] 115 % of control | dose: 50.0 mg/kg/injection, schedule: Q04DX003 (ip), vehicle: Klucel (hydroxypropylcellulose) (HPC) 100 % of control

CN1C2=C(C#N)C(=C(C#N)C#N)NC2C(C)(C)c2ccccc21 (stereo not given)
inactive: [14] 96 % of control | [15] 88 % of control | [16] 92 % of control

CCC1(c2ccc(N)cc2)CCC(=O)NC1=O (stereo not given)
inactive: [4] 91 % of control | [5] 100 % of control

O=C(Nc1ccccc1)/C(N=Nc1ccc([N+](=O)[O-])cc1Cl)=N/Nc1ccccc1S(=O)(=O)O
inactive: [4] 102 % of control | [5] 101 % of control | [6] 91 % of control

O=C1CCC2(c3ccccc3)CCCN=C2N1 (stereo not given)
inactive: dose: 100.0 mg/kg/injection, schedule: Q01DX001 (ip), vehicle: saline with Tween-80 104 % of control | dose: 200.0 mg/kg/injection, schedule: Q01DX001 (ip), vehicle: saline with Tween-80 99 % of control

CC(=O)OC1CCC2C3CCC4CC(=O)CCC4(C)C3CCC12C (stereo not given)
inactive: dose: 25.0 mg/kg/injection, schedule: Q01DX009 (ip), vehicle: saline with Tween-80 91 % of control | [14] 97 % of control | [15] 97 % of control | [16] 100 % of control

O=C1C(=O)c2ccccc2C(O)=C1CC=C(Cl)Cl
inactive: dose: 6.2 mg/kg/injection, schedule: Q01DX009 (ip), vehicle: water 120 % of control | dose: 12.5 mg/kg/injection, schedule: Q01DX009 (ip), vehicle: water 120 % of control | dose: 25.0 mg/kg/injection, schedule: Q01DX009 (ip), vehicle: water 110 % of control | dose: 25.0 mg/kg/injection, schedule: Q01DX009 (oral), vehicle: water 105 % of control | dose: 50.0 mg/kg/injection, schedule: Q01DX009 (ip), vehicle: water 120 % of control | dose: 50.0 mg/kg/injection, schedule: Q01DX009 (oral), vehicle: water 120 % of control | dose: 100.0 mg/kg/injection, schedule: Q01DX009 (oral), vehicle: water 120 % of control

Cc1cc(=O)n2c(nc3cc(C)c(C)cc32)s1
inactive: [13] 103 % of control | [17] 100 % of control

CC(C)(c1ccccc1)[N+](C)(C)C
inactive: dose: 5.0 mg/kg/injection, schedule: Q01DX009 (ip), vehicle: saline with Tween-80 100 % of control | dose: 10.0 mg/kg/injection, schedule: Q01DX009 (ip), vehicle: saline with Tween-80 104 % of control | dose: 10.0 mg/kg/injection, schedule: Q04DX003 (ip), vehicle: saline 90 % of control | dose: 20.0 mg/kg/injection, schedule: Q01DX009 (ip), vehicle: saline with Tween-80 109 % of control | dose: 20.0 mg/kg/injection, schedule: Q04DX003 (ip), vehicle: saline 95 % of control

CN(C)C(=S)SC(=S)Sc1c(Cl)c(Cl)c(Cl)c(Cl)c1Cl
inactive: [14] 99 % of control | [15] 100 % of control | [16] 99 % of control

CCC1SCC(=O)N1c1nncs1 (stereo not given)
inactive: dose: 25.0 mg/kg/injection, schedule: Q01DX005 (ip), vehicle: saline with Tween-80 104 % of control | dose: 50.0 mg/kg/injection, schedule: Q01DX005 (ip), vehicle: saline with Tween-80 101 % of control and 102 % of control | dose: 100.0 mg/kg/injection, schedule: Q01DX005 (ip), vehicle: saline with Tween-80 102 % of control and 97 % of control | dose: 200.0 mg/kg/injection, schedule: Q01DX005 (ip), vehicle: saline with Tween-80 101 % of control

O=C(Cc1nc2ccccc2[nH]c1=O)N/N=C/c1ccc2c(c1)CCC2
inactive: [7] 92 % of control and 95 % of control | [8] 100 % of control | [9] 89 % of control

O=[N+]([O-])c1cccc(C=Nc2ccc(/C=C/C3(CCl)OCCO3)cc2)c1
inactive: [13] 98 % of control | [17] 97 % of control | dose: 200.0 mg/kg/injection, schedule: Q01DX009 (ip), vehicle: Klucel (hydroxypropylcellulose) (HPC) 91 % of control

CCCCCC(=O)NC1C(O)OC(CO)C(O)C1O (stereo not given)
inactive: [4] 106 % of control | [5] 97 % of control

O=C(O)c1ccc2ccccc2n1
inactive: dose: 100.0 mg/kg/injection, schedule: Q04DX002 (ip), vehicle: saline 96 % of control | dose: 200.0 mg/kg/injection, schedule: Q04DX002 (ip), vehicle: saline 94 % of control | dose: 400.0 mg/kg/injection, schedule: Q04DX002 (ip), vehicle: saline 104 % of control

CC(=O)N1CCc2ccccc2C1C1c2ccccc2CCN1C(C)=O (stereo not given)
inactive: [10] 94 % of control | [11] 94 % of control | [12] 92 % of control
